In general, GI50 refers to the concentration that inhibits growth by half.

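1) Cells in 96-well plates. 2) Compound, 48 h, 5 concentrations. 3) Linear interpolation between surrounding doses. 4) Unreached endpoint = highest concentration. GI50 is the concentration that inhibits growth by half.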 Activity calls are given as the source filed them. Rule as the data show it: active = GI50 up to about 1.1 µM and inactive = higher.

The values below come from ChEMBL document CHEMBL1201862, “PubChem BioAssay data set” (2004).

Assay in all cases: DTP human tumour cell line panel, 48 h
Assay [1] concerns RXF 631.
Assay [2] deals with XF498.
For assay [3], the system named is KM-20L2.
The subject of assay [4] is DMS-273.
Assay [5] concerns SNB-78.
In assay [6] the test system is LXFL 529.
The test system of assay [7] is M19-MEL.
For assay [8], the system named is HOP-18.
For assay [9], the system named is DMS-114.

Take `CCc1cccc(C)c1NC(=O)C1=C(C)NC(C)=C(C(=O)Nc2c(C)cccc2CC)C1c1ccc([N+](=O)[O-])cc1`: the GI50 in assay [1] is 29.1 µM (inactive); in assay [2] it was 19.4 µM (inactive); in assay [3] it was 39.9 µM (inactive); in [4], 38.6 µM (inactive); in [5] it was 97.1 µM (inactive); in assay [6] it was 37.9 µM (inactive). The GI50 in assay [7] was 38.1 µM (inactive).

For the compound `O=c1[nH]c(=O)n([C@@H]2C[C@H](CO)[C@H](O)C2)cc1/C=C/Br`, the GI50 in assay [8], in assay [1], in assay [3], in [4], in assay [5] and in [6] was > 100 µM (inactive) in each case. Moreover, the GI50 in [7] and in assay [9] was > 100 µM (inactive) throughout.

For the compound `COc1cc2c(cc1OC)[C@@H]([C@H](O)c1ccccc1)NCC2`, the GI50 is > 100 µM (inactive) in assay [8]; > 97.3 µM (inactive) in assay [1]; > 100 µM (inactive) in [2]; > 100 µM (inactive) in assay [3]; > 100 µM (inactive) in assay [4]; > 100 µM (inactive) in assay [5]. The GI50 in [6], in [7] and in assay [9] was > 100 µM (inactive) throughout.

As to `Cc1ccc(NC(=O)CC/C(CC(=O)C(C)(C)C)=N\Nc2ccc([N+](=O)[O-])cc2[N+](=O)[O-])cc1C`, the GI50 is > 100 µM (inactive) in [8]; > 100 µM (inactive) in assay [1]; > 100 µM (inactive) in assay [3]; > 100 µM (inactive) in assay [5]; 40.9 µM (inactive) in [6]; 47.5 µM (inactive) in assay [7]. Also, the GI50 in [9] is 30 µM (inactive).

Turning to `NC1=NN(c2ccccc2)C(=O)C1C(=O)CCC(=O)Nc1cccc(Cl)c1` (stereo not given), the GI50 in assay [8], in assay [2], in assay [3], in assay [4], in assay [5] and in assay [6] was > 100 µM (inactive) each time. The GI50 in assay [7] and in assay [9] was > 100 µM (inactive) each time.

`CCOc1ccc(/C(Cl)=C(\C=O)c2ccc(OC)c(OC)c2)cc1OCC`: the GI50 was > 100 µM (inactive) in [8]; 53.2 µM (inactive) in assay [2]; > 100 µM (inactive) in assay [3]; 45.8 µM (inactive) in assay [4]; 36.8 µM (inactive) in assay [5]; 30.5 µM (inactive) in assay [6]. In addition, the GI50 in [7] was 33 µM (inactive); in assay [9], 11 µM (inactive).

For the compound `COc1cc(C2C(Cl)C(=O)N2NC(=O)Cc2ccccc2)ccc1O` (stereo not given), the GI50 was 40.3 µM (inactive) in assay [8]; > 100 µM (inactive) in assay [2]; > 100 µM (inactive) in assay [3]; > 100 µM (inactive) in [4]; > 100 µM (inactive) in assay [5]; 70.6 µM (inactive) in assay [6]. Further, the results for the GI50 in assay [7] and in assay [9] were > 100 µM (inactive) and 50.2 µM (inactive), respectively.

With `N#CC(c1ccccn1)c1nc2ccccc2[nH]1` (stereo not given), the GI50 is 64.4 µM (inactive) in [2]; > 100 µM (inactive) in assay [5]; > 100 µM (inactive) in assay [6]; > 100 µM (inactive) in assay [7]; 51.5 µM (inactive) in assay [9].

For `O=c1cc(-c2ccccc2)nc(/C=C(\O)c2ccncc2)n1-c1ccccc1`, the GI50 in assay [8], in assay [3], in [4], in [5], in [6] and in assay [7] was > 100 µM (inactive) throughout. Besides, the GI50 in assay [9] is > 100 µM (inactive).

For the compound `OCC(O)C(OC1OC(CO)C(O)C(O)C1O)c1nn(-c2ccc(F)cc2)c2nc3cc(Cl)c(Cl)cc3cc12` (stereo not given), the GI50 in [2], in [3], in assay [5], in assay [6], in assay [7] and in assay [9] was > 100 µM (inactive) in each case.

Turning to `COc1ccc2[nH]c3c4c(c5cc(C(C)(C)C)ccc5c3c2c1)C(=O)N(c1ccccc1)C4=O`, the GI50 in assay [8] was 34.8 µM (inactive); in assay [3], > 100 µM (inactive); in assay [5], > 100 µM (inactive); in assay [6], > 100 µM (inactive); in [7], > 100 µM (inactive); in assay [9], > 100 µM (inactive).

On to `CC(C)[C@H](COC(C)(C)C)/N=C/N1CSc2ccccc21`, for which the GI50 in assay [1] is 27.4 µM (inactive); in assay [2], 16.9 µM (inactive); in assay [3] it was 27.8 µM (inactive); in assay [4] it was 16.8 µM (inactive); in assay [5], 30 µM (inactive); in assay [6], 34.7 µM (inactive). Further, the GI50 in assay [7] is 36.6 µM (inactive); in assay [9], 21.8 µM (inactive).

On to `O=C(/N=C(\Nc1ccccc1)SCCS/C(=N/C(=O)c1cccs1)Nc1ccccc1)c1cccs1`, for which the GI50 in assay [2] is 34.4 µM (inactive); in assay [3] it was 41.9 µM (inactive); in assay [4], 58.7 µM (inactive); in assay [6], 46.9 µM (inactive); in assay [7] it was 53.8 µM (inactive); in [9], 30.2 µM (inactive).

Consider `CN(C)CCCCCNc1c2ccccc2nc2cccc([N+](=O)[O-])c12`, for which the 50% growth inhibitory concentration (GI50) in [8] was 0.027 µM (active); in assay [2], 0.00277 µM (active); in assay [3], 0.0036 µM (active); in assay [4], 0.00197 µM (active); in assay [5], 0.00565 µM (active); in assay [6] it was 0.0115 µM (active). In addition, the GI50 is 0.00512 µM (active) in assay [7] and 0.00242 µM (active) in [9].

Take `COc1ccc(/C=N/N=C(\N)NO)c(Cl)c1O`: the GI50 was 2.22 µM (inactive) in assay [8]; 34.1 µM (inactive) in assay [5]; 2.89 µM (inactive) in assay [6]; 1.48 µM (inactive) in assay [7]; 5.9 µM (inactive) in assay [9].

In the case of `Cc1ccccc1NC(=O)/C=N/O`, the GI50 in assay [8] is > 100 µM (inactive); in assay [3], 16.9 µM (inactive); in assay [4], > 100 µM (inactive); in assay [6], > 100 µM (inactive); in [7], > 100 µM (inactive); in [9], > 100 µM (inactive).

Consider `COC(c1ccccc1)C(c1ccccc1)N1CCOCC1` (stereo not given), for which the GI50 in [8] was > 100 µM (inactive); in assay [2], 53 µM (inactive); in assay [3] it was > 100 µM (inactive); in assay [4], > 100 µM (inactive); in assay [5], > 100 µM (inactive); in assay [6] it was > 100 µM (inactive). The GI50 in [7] and in [9] was > 100 µM (inactive) each time.

In the case of `COc1ccc(C(=O)Nc2ccc(S(=O)(=O)NCC(=O)O)cc2)cc1`, the GI50 in assay [8], in assay [1], in assay [2], in [3], in assay [4] and in [6] was > 100 µM (inactive) each time. Also, the GI50 in [7] was > 100 µM (inactive).

Turning to `Cc1ccc(/C=C2\CNC/C(=C\c3ccc(C)cc3)C2=O)cc1`, the GI50 in [8] is > 10 µM (inactive); in [2] it was 2.59 µM (inactive); in assay [3] it was 1.32 µM (inactive); in [4] it was 1.24 µM (inactive); in [5] it was > 100 µM (inactive); in [6], 1.28 µM (inactive). Besides, the results for the GI50 in [7] and in [9] were 1.57 µM (inactive) and 1.86 µM (inactive), respectively.

In the case of `COC1CCC(OS(C)(=O)=O)C(CO)O1` (stereo not given), the GI50 in assay [2], in assay [3], in assay [6] and in assay [7] was > 100 µM (inactive) throughout.

Turning to `O=C(N/C(=C\c1ccc([N+](=O)[O-])cc1)c1nc2cc(Cl)ccc2[nH]1)c1ccccc1`, the GI50 in assay [2] is 15.3 µM (inactive); in assay [3] it was 16.3 µM (inactive); in assay [5], 23.8 µM (inactive); in assay [6] it was 17.1 µM (inactive); in assay [7] it was 31.6 µM (inactive); in assay [9], 16.3 µM (inactive).

For `CCNC(=O)COc1ccc(Cl)cc1Cl`, the GI50 in assay [8], in assay [1], in assay [3], in assay [4], in assay [5] and in assay [6] was > 100 µM (inactive) throughout. Also, the GI50 in assay [7] and in [9] was > 100 µM (inactive) in each case.

Turning to `CS/C(=N\c1ccccc1Cl)NC(=O)c1ccc(Br)cc1`, the GI50 in [8] is 25.5 µM (inactive); in assay [2], 46.2 µM (inactive); in [3] it was > 100 µM (inactive); in [5], 19.1 µM (inactive); in assay [6], 79.4 µM (inactive); in assay [7] it was > 100 µM (inactive). For the same compound, the GI50 in assay [9] was > 100 µM (inactive).

As for `Cc1ccccc1NC(=O)/C(=N\NC(N)=S)C(C#N)c1ccccc1` (stereo not given), the GI50 in assay [8], in assay [1], in assay [3], in assay [4], in [5] and in assay [6] was > 100 µM (inactive) in each case. The GI50 is > 100 µM (inactive) in assay [7] and 72.4 µM (inactive) in assay [9].

On to `CC12CCC(=O)C[C@H]1CCC(OC=O)C2Br` (stereo not given in full), for which the GI50 in assay [8], in assay [2], in [3], in assay [4], in assay [6] and in assay [7] was > 100 µM (inactive) each time. Also, the GI50 in assay [9] is > 100 µM (inactive).
